Assay results reported in ChEMBL document CHEMBL3751715, “Design and synthesis of an activity-based protein profiling probe derived from cinnamic hydroxamic acid” (Bioorg Med Chem, 2016).
Values after ≈ are worked out from the molar mass of the structure shown. One block for each molecule: values may come before it.

Assays:
[1] = target: Stromelysin-2 (Homo sapiens, UniProt P09238); test: Inhibition of human recombinant MMP10 expressed in Escherichia coli using (5-FAM/QXLTM) FRET peptide as substrate
[2] = target: Protein deacetylase HDAC6 (Homo sapiens, UniProt Q9UBN7); test: Inhibition of full length N-terminal GST-tagged human HDAC6 expressed in Sf9 cells using (Arg-His-Lys-Lys(Ac)) as substrate by plate reader analysis
[3] = target: Interstitial collagenase (Homo sapiens, UniProt P03956); test: Inhibition of human recombinant MMP1 expressed in Escherichia coli using (5-FAM/QXLTM) FRET peptide as substrate
[4] = target: Matrix metalloproteinase-14 (Homo sapiens, UniProt P50281); test: Inhibition of human recombinant MMP14 expressed in Escherichia coli using (5-FAM/QXLTM) FRET peptide as substrate
[5] = target: Histone deacetylase 11 (Homo sapiens, UniProt Q96DB2); test: Inhibition of N-terminal GST-tagged human HDAC11 expressed in baculovirus expression system using (Arg-His-Lys-Lys(Ac)) as substrate by plate reader analysis
Chain of Histone deacetylase 11 (Q96DB2 whole entry): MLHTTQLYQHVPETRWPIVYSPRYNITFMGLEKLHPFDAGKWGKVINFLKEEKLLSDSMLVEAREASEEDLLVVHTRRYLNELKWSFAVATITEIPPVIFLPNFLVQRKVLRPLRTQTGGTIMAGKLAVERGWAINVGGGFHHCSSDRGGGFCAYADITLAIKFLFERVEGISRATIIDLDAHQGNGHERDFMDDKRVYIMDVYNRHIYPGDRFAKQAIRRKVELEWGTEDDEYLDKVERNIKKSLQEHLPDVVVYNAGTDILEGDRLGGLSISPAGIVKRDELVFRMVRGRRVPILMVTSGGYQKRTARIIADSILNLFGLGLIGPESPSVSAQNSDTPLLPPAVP

[6] = Inhibition of recombinant HCV genotype 1b NS3/4A protease expressed in Escherichia coli using Ac-DE-D(Edans)-EE-Abu-[COO]-AS-K(Dabcyl)-NH2 as substrate; set-up: species or system Hepatitis C virus subtype 1b
[7] = target: Histone deacetylase 4 (Homo sapiens, UniProt P56524); test: Inhibition of N-terminal GST-tagged human HDAC4 expressed in baculovirus expression system using (Boc-Lys(trifluoroacetyl)-AMC) as substrate by plate reader analysis
[8] = target: Disintegrin and metalloproteinase domain-containing protein 17 (Homo sapiens, UniProt P78536); test: Inhibition of human recombinant TACE expressed in Sf21 cells using MCA-PLAQAV-Dpa-RSSSR-NH2 as substrate
Chain of Disintegrin and metalloproteinase domain-containing protein 17 (P78536 whole entry, the tested form may be a part): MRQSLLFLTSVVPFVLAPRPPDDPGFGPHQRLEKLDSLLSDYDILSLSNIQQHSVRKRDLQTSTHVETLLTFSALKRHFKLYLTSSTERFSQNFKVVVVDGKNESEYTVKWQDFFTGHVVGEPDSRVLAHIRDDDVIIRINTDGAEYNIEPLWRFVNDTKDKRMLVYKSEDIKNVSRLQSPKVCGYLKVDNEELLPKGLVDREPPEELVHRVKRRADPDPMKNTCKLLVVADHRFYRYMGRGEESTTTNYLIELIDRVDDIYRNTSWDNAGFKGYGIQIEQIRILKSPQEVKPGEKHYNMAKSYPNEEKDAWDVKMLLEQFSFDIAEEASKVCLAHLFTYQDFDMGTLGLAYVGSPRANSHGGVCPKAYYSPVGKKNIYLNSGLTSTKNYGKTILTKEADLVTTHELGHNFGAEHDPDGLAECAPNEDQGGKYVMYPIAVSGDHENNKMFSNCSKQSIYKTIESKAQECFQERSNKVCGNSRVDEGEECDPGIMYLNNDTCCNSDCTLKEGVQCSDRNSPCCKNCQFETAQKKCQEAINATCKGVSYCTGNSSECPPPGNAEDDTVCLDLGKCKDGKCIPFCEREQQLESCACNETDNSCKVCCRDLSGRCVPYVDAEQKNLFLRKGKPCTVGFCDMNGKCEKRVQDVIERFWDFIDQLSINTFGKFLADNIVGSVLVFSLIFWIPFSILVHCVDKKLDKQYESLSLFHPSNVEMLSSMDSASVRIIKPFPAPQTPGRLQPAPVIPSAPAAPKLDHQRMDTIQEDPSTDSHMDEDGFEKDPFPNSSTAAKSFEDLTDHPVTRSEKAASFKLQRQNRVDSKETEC

[9] = target: Matrilysin (Homo sapiens, UniProt P09237); test: Inhibition of human recombinant MMP7 expressed in Escherichia coli using (5-FAM/QXLTM) FRET peptide as substrate
[10] = target: Histone deacetylase 1 (Homo sapiens, UniProt Q13547); test: Inhibition of full length C-terminal GST-tagged human HDAC1 expressed in Sf9 cells using (Arg-His-Lys-Lys(Ac)) as substrate by plate reader analysis
[11] = Half life in mouse plasma at 1 to 24 hrs by LC-MS/MS analysis; format: ADME, cell-free
[12] = target: Histone deacetylase 5 (Homo sapiens, UniProt Q9UQL6); test: Inhibition of full length N-terminal GST-tagged human HDAC5 expressed in Sf9 cells using (Boc-Lys(trifluoroacetyl)-AMC) as substrate by plate reader analysis
Chain of Histone deacetylase 5 (Q9UQL6 whole entry): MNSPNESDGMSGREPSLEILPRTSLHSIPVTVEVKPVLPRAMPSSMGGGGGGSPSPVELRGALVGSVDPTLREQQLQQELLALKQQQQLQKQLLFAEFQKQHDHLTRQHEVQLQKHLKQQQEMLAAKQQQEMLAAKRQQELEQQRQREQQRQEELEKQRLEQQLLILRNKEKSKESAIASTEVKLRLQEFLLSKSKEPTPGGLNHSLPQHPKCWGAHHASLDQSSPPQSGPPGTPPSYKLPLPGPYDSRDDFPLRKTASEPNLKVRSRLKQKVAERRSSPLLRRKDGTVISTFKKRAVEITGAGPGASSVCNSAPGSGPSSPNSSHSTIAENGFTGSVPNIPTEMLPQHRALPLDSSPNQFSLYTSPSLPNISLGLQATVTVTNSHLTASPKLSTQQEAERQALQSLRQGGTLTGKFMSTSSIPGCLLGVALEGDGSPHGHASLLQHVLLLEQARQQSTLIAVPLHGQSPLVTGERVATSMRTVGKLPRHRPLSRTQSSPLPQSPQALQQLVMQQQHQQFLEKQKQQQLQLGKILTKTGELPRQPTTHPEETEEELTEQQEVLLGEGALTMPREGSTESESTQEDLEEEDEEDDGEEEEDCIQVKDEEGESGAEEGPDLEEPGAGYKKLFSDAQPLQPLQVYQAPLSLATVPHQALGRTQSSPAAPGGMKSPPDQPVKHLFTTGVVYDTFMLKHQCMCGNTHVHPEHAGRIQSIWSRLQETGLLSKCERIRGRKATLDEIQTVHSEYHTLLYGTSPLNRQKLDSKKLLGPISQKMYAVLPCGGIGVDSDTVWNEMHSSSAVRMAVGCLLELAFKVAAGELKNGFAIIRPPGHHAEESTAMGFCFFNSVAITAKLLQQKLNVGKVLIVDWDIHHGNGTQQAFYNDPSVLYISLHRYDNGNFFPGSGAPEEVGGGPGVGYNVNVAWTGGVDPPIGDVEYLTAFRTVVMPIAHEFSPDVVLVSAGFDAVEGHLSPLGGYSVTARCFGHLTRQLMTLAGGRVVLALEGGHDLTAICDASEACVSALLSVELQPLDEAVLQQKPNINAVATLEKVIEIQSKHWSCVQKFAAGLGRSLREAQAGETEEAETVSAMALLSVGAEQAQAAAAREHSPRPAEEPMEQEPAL

[13] = tested on: Hepatitis C virus subtype 1b; test: Inhibition of recombinant HCV genotype 1b NS5B Cdelta55 RNA dependent RNA polymerase at 10 uM incubated for 3 hrs using Oligo-U12 primer, UTP and Poly(A) template by scintillation proximity assay
[14] = Half life in human plasma at 1 to 24 hrs by LC-MS/MS analysis; format: ADME, cell-free
[15] = target: Macrophage metalloelastase (Homo sapiens, UniProt P39900); test: Inhibition of human recombinant MMP12 expressed in Escherichia coli using (5-FAM/QXLTM) FRET peptide as substrate
[16] = Half life in human liver microsomes at 1 uM by LC-MS/MS analysis in presence of UDPGA; format: ADME
[17] = target: Histone deacetylase 9 (Homo sapiens, UniProt Q9UKV0); test: Inhibition of C-terminal His-tagged human HDAC9 expressed in baculovirus expression system using (Boc-Lys(trifluoroacetyl)-AMC) as substrate by plate reader analysis
Chain of Histone deacetylase 9 (Q9UKV0 whole entry): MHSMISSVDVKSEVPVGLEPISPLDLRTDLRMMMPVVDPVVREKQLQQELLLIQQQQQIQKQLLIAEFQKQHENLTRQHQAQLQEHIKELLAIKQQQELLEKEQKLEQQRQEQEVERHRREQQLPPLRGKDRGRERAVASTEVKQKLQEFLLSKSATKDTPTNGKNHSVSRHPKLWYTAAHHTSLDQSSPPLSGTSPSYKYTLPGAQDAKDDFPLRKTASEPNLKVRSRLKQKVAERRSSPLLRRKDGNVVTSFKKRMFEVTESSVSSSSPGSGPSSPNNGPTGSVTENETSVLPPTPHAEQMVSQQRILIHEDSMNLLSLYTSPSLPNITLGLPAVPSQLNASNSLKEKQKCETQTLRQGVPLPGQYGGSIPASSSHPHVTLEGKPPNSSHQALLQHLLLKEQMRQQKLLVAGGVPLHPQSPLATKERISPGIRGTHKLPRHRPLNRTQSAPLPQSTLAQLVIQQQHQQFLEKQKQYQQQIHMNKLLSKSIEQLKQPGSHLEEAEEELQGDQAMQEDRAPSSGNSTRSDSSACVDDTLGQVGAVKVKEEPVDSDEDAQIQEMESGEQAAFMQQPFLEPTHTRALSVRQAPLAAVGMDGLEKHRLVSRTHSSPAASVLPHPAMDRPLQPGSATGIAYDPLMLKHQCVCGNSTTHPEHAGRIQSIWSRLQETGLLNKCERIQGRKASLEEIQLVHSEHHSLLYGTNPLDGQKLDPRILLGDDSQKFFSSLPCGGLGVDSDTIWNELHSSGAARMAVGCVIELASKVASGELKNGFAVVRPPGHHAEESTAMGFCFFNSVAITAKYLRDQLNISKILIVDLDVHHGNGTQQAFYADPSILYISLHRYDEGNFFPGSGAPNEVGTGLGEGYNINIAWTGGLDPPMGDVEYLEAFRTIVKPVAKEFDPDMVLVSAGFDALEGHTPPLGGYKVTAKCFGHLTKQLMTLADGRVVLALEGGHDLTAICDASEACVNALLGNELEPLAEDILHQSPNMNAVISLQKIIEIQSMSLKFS

[18] = target: Collagenase 3 (Homo sapiens, UniProt P45452); test: Inhibition of human recombinant MMP13 expressed in Escherichia coli using (5-FAM/QXLTM) FRET peptide as substrate
[19] = target: Histone deacetylase 2 (Homo sapiens, UniProt Q92769); test: Inhibition of full length C-terminal His-tagged human HDAC2 expressed in Sf9 cells using (Arg-His-Lys-Lys(Ac)) as substrate by plate reader analysis
[20] = target: Histone deacetylase 7 (Homo sapiens, UniProt Q8WUI4); test: Inhibition of N-terminal GST-tagged human HDAC7 expressed in baculovirus expression system using (Boc-Lys(trifluoroacetyl)-AMC) as substrate by plate reader analysis
[21] = target: Neutrophil collagenase (Homo sapiens, UniProt P22894); test: Inhibition of human recombinant MMP8 expressed in Escherichia coli using (5-FAM/QXLTM) FRET peptide as substrate
Chain of Neutrophil collagenase (P22894 whole entry): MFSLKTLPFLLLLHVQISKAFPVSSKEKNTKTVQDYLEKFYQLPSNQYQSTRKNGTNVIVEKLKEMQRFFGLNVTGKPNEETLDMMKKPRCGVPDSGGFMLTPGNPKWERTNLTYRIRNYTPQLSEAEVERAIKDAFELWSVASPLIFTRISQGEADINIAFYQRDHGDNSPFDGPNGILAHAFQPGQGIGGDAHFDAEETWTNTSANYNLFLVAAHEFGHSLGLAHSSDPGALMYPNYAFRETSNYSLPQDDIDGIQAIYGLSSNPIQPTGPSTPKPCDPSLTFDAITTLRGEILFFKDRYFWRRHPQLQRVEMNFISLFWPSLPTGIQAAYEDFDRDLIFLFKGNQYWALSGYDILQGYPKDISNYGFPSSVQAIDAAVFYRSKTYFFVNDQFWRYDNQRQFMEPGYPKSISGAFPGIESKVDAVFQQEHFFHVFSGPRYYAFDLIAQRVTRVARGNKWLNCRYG

[22] = tested on: Hepatitis C virus; test: Antiviral activity against HCV assessed as reduction of viral replicon RNA level by RT-qPCR analysis; format: functional, organism-based; settings: Hepacivirus hominis
[23] = target: Histone deacetylase 8 (Homo sapiens, UniProt Q9BY41); test: Inhibition of full length human HDAC8 expressed in Escherichia coli using (Arg-His-Lys(Ac)-Lys(Ac)) as substrate by plate reader analysis
[24] = Half life in mouse liver microsomes at 1 uM by LC-MS/MS analysis in presence of UDPGA; format: ADME
[25] = Half life in human liver microsomes at 1 uM by LC-MS/MS analysis in presence of NADPH; format: ADME
[26] = Thermodynamic solubility of the compound in DPBS buffer at pH 7.4 after 72 hrs by UV spectrometric analysis; format: physicochemical; settings: read-out: Therm_solubility
[27] = target: Stromelysin-1 (Homo sapiens, UniProt P08254); test: Inhibition of human recombinant MMP3 expressed in Escherichia coli using (5-FAM/QXLTM) FRET peptide as substrate
Chain of Stromelysin-1 (P08254 whole entry): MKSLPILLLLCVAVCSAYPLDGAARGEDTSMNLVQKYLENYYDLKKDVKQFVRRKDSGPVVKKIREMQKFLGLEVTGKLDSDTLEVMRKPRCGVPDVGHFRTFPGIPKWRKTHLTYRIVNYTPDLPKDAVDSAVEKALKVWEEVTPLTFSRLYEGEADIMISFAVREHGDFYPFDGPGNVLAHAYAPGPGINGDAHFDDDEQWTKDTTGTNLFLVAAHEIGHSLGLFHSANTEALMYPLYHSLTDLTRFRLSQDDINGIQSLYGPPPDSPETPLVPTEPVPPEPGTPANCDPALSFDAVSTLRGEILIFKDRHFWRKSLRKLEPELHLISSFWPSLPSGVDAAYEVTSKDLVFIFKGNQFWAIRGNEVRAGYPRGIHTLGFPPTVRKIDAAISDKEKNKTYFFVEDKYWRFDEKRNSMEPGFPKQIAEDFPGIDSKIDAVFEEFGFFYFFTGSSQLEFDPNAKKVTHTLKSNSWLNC

[28] = Half life in mouse liver microsomes at 1 uM by LC-MS/MS analysis in presence of NADPH; format: ADME
[29] = target: Matrix metalloproteinase-9 (Homo sapiens, UniProt P14780); test: Inhibition of human recombinant MMP9 expressed in Escherichia coli using (5-FAM/QXLTM) FRET peptide as substrate
[30] = target: Polyamine deacetylase HDAC10 (Homo sapiens, UniProt Q969S8); test: Inhibition of N-terminal GST-tagged human HDAC10 expressed in Sf9 cells using (Arg-His-Lys-Lys(Ac)) as substrate by plate reader analysis
Chain of Polyamine deacetylase HDAC10 (Q969S8 whole entry): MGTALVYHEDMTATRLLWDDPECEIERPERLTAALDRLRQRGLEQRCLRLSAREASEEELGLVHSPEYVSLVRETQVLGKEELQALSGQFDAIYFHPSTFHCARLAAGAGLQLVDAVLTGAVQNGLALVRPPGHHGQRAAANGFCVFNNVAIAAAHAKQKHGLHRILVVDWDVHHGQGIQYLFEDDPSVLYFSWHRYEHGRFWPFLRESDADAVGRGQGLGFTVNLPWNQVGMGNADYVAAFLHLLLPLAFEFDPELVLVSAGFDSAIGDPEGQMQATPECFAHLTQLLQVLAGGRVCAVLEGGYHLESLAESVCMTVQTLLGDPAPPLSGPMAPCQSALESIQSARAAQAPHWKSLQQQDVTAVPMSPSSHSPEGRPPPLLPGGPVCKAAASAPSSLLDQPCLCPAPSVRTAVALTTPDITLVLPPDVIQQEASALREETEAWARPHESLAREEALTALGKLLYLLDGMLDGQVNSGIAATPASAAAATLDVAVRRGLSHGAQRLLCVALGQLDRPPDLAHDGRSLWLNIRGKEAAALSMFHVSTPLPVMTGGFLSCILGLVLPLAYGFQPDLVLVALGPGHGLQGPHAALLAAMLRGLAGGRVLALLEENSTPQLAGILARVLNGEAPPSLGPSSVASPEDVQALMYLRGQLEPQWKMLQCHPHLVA

[31] = target: Histone deacetylase 3 (Homo sapiens, UniProt O15379); test: Inhibition of full length C-terminal His-tagged human HDAC3 expressed in baculovirus expression system using (Arg-His-Lys-Lys(Ac)) as substrate by plate reader analysis
[32] = Cytotoxicity against human HuH7 cells assessed as cell viability after 3 days by CellTiter 96 aqueous one solution cell proliferation assay; format: cell-based, Huh-7
[33] = Therapeutic index, ratio of CC50 for human HuH7 cells to EC50 for HCV genotype 1b replicon; format: cell-based, Huh-7; settings: read-out: Ratio CC50/EC50
[34] = tested on: Hepatitis C virus; test: Antiviral activity against HCV genotype 1b replicon infected in human HuH7 cells after 3 days by luciferase reporter assay; format: functional, organism-based, Hepacivirus hominis; settings: Huh-7, 72 h
[35] = tested on: Hepatitis C virus; test: Antiviral activity against HCV genotype 1b replicon infected in human HuH7 cells at 10 uM after 3 days by luciferase reporter assay; format: functional, Hepacivirus hominis; settings: Huh-7, 72 h
[36] = Cytotoxicity against human HuH7 cells assessed as inhibition of cell viability at 10 uM after 3 days by CellTiter 96 aqueous one solution cell proliferation assay; format: cell-based, Huh-7; settings: read-out: Activity

IC50 [1]: > 100 µM
IC50 [2]: 0.183 µM
IC50 [3]: > 100 µM
IC50 [4]: > 100 µM
IC50 [5]: 5.53 µM
IC50 [6]: > 200 µM
IC50 [7]: > 100 µM
IC50 [8]: 21.5 µM
IC50 [9]: > 100 µM
IC50 [10]: 4.11 µM
half-life [11]: 23.2 h
IC50 [12]: 34.7 µM
inhibition [13]: < 5%
half-life [14]: > 24 h
IC50 [15]: > 100 µM
half-life at 1 µM [16]: 8.88 h
IC50 [17]: > 100 µM
IC50 [18]: > 100 µM
IC50 [19]: 6.36 µM
IC50 [20]: > 100 µM
IC50 [21]: > 100 µM
IC50 [23]: 0.954 µM
half-life at 1 µM [24]: 0.247 h
half-life at 1 µM [25]: 11.6 h
solubility thermodynamic at 72 h [26]: 648 µM (≈ 150 µg/mL)
IC50 [27]: > 100 µM
half-life at 1 µM [28]: 0.77 h
IC50 [29]: > 100 µM
IC50 [30]: 6.32 µM
IC50 [31]: 5.37 µM
Structure (SMILES): O=C(/C=C/c1ccc(C(F)(F)F)cc1)NO
Activity [22]: Dose-dependent effect

EC50 [34]: 1.2 µM
Structure (SMILES): C#CCCCC(=O)NCCOCCOCCOc1ccc(C(=O)c2ccc(/C=C/C(=O)NO)cc2)cc1
CC50 at 72 h [32]: 25 µM
selectivity ratio [33]: 21

half-life [11]: > 24 h
half-life [14]: > 24 h
half-life at 1 µM [16]: 0.0233 h
half-life at 1 µM [24]: 0.0283 h
half-life at 1 µM [25]: 12.8 h
solubility thermodynamic at 72 h [26]: 3350 µM (≈ 1120 µg/mL)
half-life at 1 µM [28]: 1.31 h
Structure (SMILES): O=C(NO)c1sc2ccccc2c1S(=O)(=O)c1ccccc1
Activity [22]: Dose-dependent effect

EC50 [34]: 0.48 µM
Structure (SMILES): O=C(/C=C/c1ccc(C(=O)c2ccccc2)cc1)NO
CC50 at 72 h [32]: 16 µM
selectivity ratio [33]: 33

Structure (SMILES): C#CCCCC(=O)NCCOCCOCCOc1ccc(C(=O)c2ccc(/C=C/C(=O)O)cc2)cc1
inhibition at 10 µM [35]: < 5%
inhibition at 72 h, 10 µM [36]: < 5%

Structure (SMILES): [N-]=[N+]=NCCCNC(=O)CCCC[C@@H]1SC[C@@H]2NC(=O)N[C@@H]21
inhibition at 10 µM [35]: < 10%
inhibition at 72 h, 10 µM [36]: < 5%
